Assay results taken from patent US11377499B2, “Targeting the cofilin pathway” (priority 2017, dated 2022).

How the values were obtained:
[1] = test system: A3R5.7 T cells or blood resting CD4 T cells; test: Chemotaxis trans-well assay in response to SDF-1; type: cell-based, human
Protocol: (§1) Cells were stained with PE-labeled Rat anti-human CCR5 antibody (Biolegend, San Diego, Calif.) or with a mouse anti-human α4β7 integrin antibody (Act-1) (obtained from NIH AIDS Reagent Program) followed by secondary antibody staining with Alexa Fluor 647-labelled goat anti-mouse antibodies (Invitrogen, Carlsbad, Calif.). Cells were stained on ice in PBS+0.1% BSA for 30 minutes, washed with cold PBS-0.5% BSA, and then analyzed on a FACSCalibur (BD Biosciences, San Jose, Calif.).
A half million cells were resuspended into 100 μl RPMI-1640 medium and then added to the upper chamber of a 24-well trans-well plate (Corning, Corning, N.Y.). The lower chamber was filled with 600 μl of medium premixed with SDF-1 (40 ng/ml). The plate was incubated at 37° C. for 2 hours, and then the upper chamber was removed and cells in the lower chamber were counted. Where indicated, different concentrations of R10015 (29) or DMSO were added to cell culture, incubated for 1 hour at 37° C. before adding cells to the upper chamber. Cells were also treated with the anti-human α4β7 integrin antibody (Act-1) or the control mouse IgG1 antibody for 15 minutes before adding cells to the upper chamber. Act-1 (1 μg/ml) was also added to the lower chamber with SDF-1 (40 ng/ml).

[2] = test system: cofilin phosphorylation in A3R5.7 T cells or blood resting CD4 T cells; test: Western blot for p-cofilin and cofilin after R10015 treatment; type: cell-based, human
Description: Cofilin hyperactivation may be associated with a migratory impairment of CCR6+ and CXCR3+ helper T cells (Th), which are prevented from trafficking from the blood stream to peripheral organs even in aviremic HIV patients on long-term ART (5). T cell migration and homing is controlled by chemotactic signaling which activates cycles of cofilin phosphorylation and dephosphorylation to drive actin dynamics for cell motility. Phosphorylation of cofilin is regulated by LIM-domain kinase (LIMK), which inactivates cofilin through serine 3 phosphorylation (28). To quantify the effect of cofilin hyperactivation on T cell migration, a recently discovered LIMK inhibitor, R10015 (29) was used, to mimic cofilin activation in HIV infection. A human CD4 T cell line, A3R5.7, or blood resting CD4 T cells were treated with different dosages of R10015 during chemotaxis (FIG. 3). […] At around 15 to 20 μM of R10015, cofilin phosphorylation was reduced to around 50%, approximately the level seen in HIV patients (FIGS. 3A and 3B).
One million cells were lysed in NuPAGE LDS Sample Buffer (Invitrogen, Carlsbad, Calif.) followed by sonication. Samples were heated at 70° C. for 10 minutes, separated by SDS-PAGE, and then transferred onto nitrocellulose membranes (Invitrogen, Carlsbad, Calif.). The membranes were washed in TBST for 3 minutes and then blocked for 30 minutes at room temperature with 5% milk. […]

[3] = test system: cofilin phosphorylation in resting memory CD4 T cells; test: Intracellular p-cofilin staining and flow cytometry after HIV-1(AD8) or gp120(BAL) stimulation; type: cell-based, human
Description: In addition to CXCR4, CCR5 is used by R5-tropic viruses that predominate early in the infection; R5 HIV infects and depletes gut memory CD4 T cells, leading to chronic immune activation (20, 21). Whether HIV-mediated CCR5 signaling can also lead to cofilin activation in memory T cells was investigated. In contrast to X4 viruses, which infect both memory and naïve CD4 T cells, R5 viruses infect a subpopulation of memory CD4 T cells (FIG. 1A). CCR5 is present on only around 30% of resting memory CD4 T cells (FIG. 1B). Given this low percentage, a flow cytometry-based intracellular phospho-cofilin staining method was used to quantify cofilin in individual cells. […]
A3R5.7 cell is acquired from the NIH AIDS Reagent Program. […] Viral titer (TCID50) was determined on the Rev-dependent GFP indicator cell (61), Rev-A3R5-GFP (Virongy, Manassas, Va.). […] T cells were stained with anti-CD45RO-Pacific Blue monoclonal antibody (BD Pharmingen) and analyzed by Flow Cytometry for CD45RO and GFP expression. […]
One million cells were fixed, permeabilized with methanol, washed, and then stained with an anti-human p-cofilin antibody using a commercial intracellular staining kit (Virongy, Manassas, Va.) for 60 min at room temperature. […] Cells were washed twice, and then analyzed on a FACSCalibur (BD Biosciences, San Jose, Calif.).

[4] = test system: cofilin phosphorylation in resting memory and IL-7-cultured naïve CD4 T cells (α4β7 integrin); test: Intracellular p-cofilin staining and flow cytometry after Act-1 stimulation; type: cell-based, human; settings: memory T cells treated with PTX 2 hours, then Act-1 1 μg/ml; 30 min
Protocol: In the human peripheral blood, high levels of α4β7 were detected on a subpopulation of resting memory CD4 T cells (36).
One million cells were fixed, permeabilized with methanol, washed, and then stained with an anti-human p-cofilin antibody using a commercial intracellular staining kit (Virongy, Manassas, Va.) for 60 min at room temperature. Cells were washed twice and stained with Alexa Fluor 488-labeled chicken anti-rabbit antibodies (Invitrogen, Carlsbad, Calif.). Cells were washed twice, and then analyzed on a FACSCalibur (BD Biosciences, San Jose, Calif.).

[5] = prevents therapeutic use; cited from earlier work
[6] = test system: LIMK; settings: previously identified (30); cited from earlier work
[7] = test system: α4β7 on naïve CD4 T cells; test: Surface staining of α4β7 and flow cytometry; type: cell-based, human; settings: naïve T cells cultured in IL-7 (5 ng/ml) for 3 days; FIG. 5
Description: All protocols involving human subjects were reviewed and approved by the George Mason University institutional review board. Peripheral blood mononuclear cells (PBMC) were purified from peripheral blood of HIV-negative donors by centrifugation in Lymphocyte Separation Medium (Corning, Corning, N.Y.), and resting CD4 T cells were further purified by two rounds of negative selection as previously described (13, 54). Briefly, for the first-round depletion, monoclonal antibodies against human CD14, CD56 and HLA-DR, DP, and DQ (BD Biosciences, San Jose, Calif.) were used. For the second-round depletion, monoclonal antibodies against human CD8, CD11b, and CD19 (BD Biosciences, San Jose, Calif.) were used. Antibody-bound cells were depleted using Dynabeads Pan Mouse IgG (Invitrogen, Carlsbad, Calif.). […]
as §1

## COC(=O)c1ccc2nc(C3CCN(c4ncnc5[nH]cc(Cl)c45)CC3)[nH]c2c1 [R10015]
[1]; 15 μM or 20 μM R10015 (50% reduction in cofilin phosphorylation), A3R5.7 and blood T cells, SDF-1 40 ng/ml
  decrease in migrating T cells: 20-40%
[1]; R10015 alone, control 8.90%, FIG. 4F
  percentage of migrating α4β7^high T cells: 4.52%
[1]; R10015 and Act-1, FIG. 8
  percentage of the CCR7^+ T cell subpopulation among migrating cells: not altered
[1]; different dosages of R10015, SDF-1 40 ng/ml, FIGS. 3C and 3D
  impairment of T cell chemotaxis: dosage-dependent impairment of T cell chemotaxis
[2]; around 15 to 20 μM R10015, one hour, A3R5.7 or blood resting CD4 T cells
  cofilin phosphorylation reduced to: around 50%
[2]; different dosages of R10015, one hour, FIGS. 3A and 3B
  dephosphorylation of cofilin: dosage-dependent dephosphorylation of cofilin

## pertussis toxin
[3]; resting memory CD4 T cells, pertussis toxin 100 ng/ml for 1 hour, then HIV(AD8), FIG. 1C
  cofilin activation (dephosphorylation) following exposure to R5-HIV: largely abrogated late cofilin activation
[4]
  Act-1-mediated cofilin activation after PTX: late inhibition of cofilin activation

## Cc1nnc(C(C)C)n1C1C[C@H]2CC[C@@H](C1)N2CC[C@H](NC(=O)C1CCC(F)(F)CC1)c1ccccc1 (stereo in doubt) [maravoric]
[3]; maravoric 1 μM for 1 hour, then gp120(BAL) 100 nM, FIG. 1D
  cofilin activation by gp120(BAL) after pretreatment with CCR5 blocker: largely abrogated

## C=C1[C@@H](O)[C@@H]2O[C@]3(CC[C@H](/C=C/[C@@H](C)[C@@H]4CC(C)=C[C@@]5(O[C@H](C[C@@](C)(O)C(=O)O)CC[C@H]5O)O4)O3)CC[C@H]2O[C@@H]1[C@@H](O)C[C@H](C)[C@H]1O[C@@]2(CCCCO2)CC[C@H]1C [okadaic acid]
[5]
  toxicity: high toxicity
[6]
  LIMK activation, cofilin phosphorylation and actin polymerization: activate LIMK and enhance cofilin phosphorylation and actin polymerization

B1: IL-7: cytokine used to culture naïve T cells for α4β7 surface receptor upregulation (protein, UniProt P13232 26-177, looked up)
Interleukin-7: DCDIEGKDGKQYESVLMVSIDQLLDSMKEIGSNCLNNEFNFFKRHICDANKEGMFLFRAARKLRQFLKMNSTGDFDLHLLKVSEGTTILLNCTGQVKGRKPAALGEAQPTKSLEENKSLKEQKKLNDLCFLKRLLQEIKTCWNKILMGTKEH
[7]
  α4β7 surface expression: greatly upregulate α4β7 on the cell surface
